For test [1], the target named is T1, HDAC1 (Homo sapiens, UniProt Q13547). As to the kind of experiment: HDAC1 degradation, western blot in MM.1S cells. The class given is cell-based. More on the design: endogenous in cells; host or cells: MM.1S. The note with it: 25 μM, 24 h, immunoblot. On the procedure: First, the multiple myeloma cell line MM.1S was treated with varying concentrations (1, 10, and 25 µM) of degraders 10a–d for 6 and 24 h, respectively. HDAC1 and HDAC6 were selected for investigation due to their critical roles in various diseases such as cancer. HDAC1 and HDAC6 protein levels were subsequently evaluated using western blot analysis. […] This limited efficacy could be due to insufficient incubation time of the compounds with MM.1S cells. […] All compounds still exerted no degradation of HDAC6 at different concentrations after 24 h of treatment. However, different from 10b–d, degrader 10a, which contains a hydroxamic acid as ZBG, achieved substantial degradation of HDAC1 with a maximal degradation (D max) value of 74% at 25 μM. Consequently, Compound 10a was selected for further biological evaluations based on the initial screening results.
T1 sequence (Q13547 whole entry): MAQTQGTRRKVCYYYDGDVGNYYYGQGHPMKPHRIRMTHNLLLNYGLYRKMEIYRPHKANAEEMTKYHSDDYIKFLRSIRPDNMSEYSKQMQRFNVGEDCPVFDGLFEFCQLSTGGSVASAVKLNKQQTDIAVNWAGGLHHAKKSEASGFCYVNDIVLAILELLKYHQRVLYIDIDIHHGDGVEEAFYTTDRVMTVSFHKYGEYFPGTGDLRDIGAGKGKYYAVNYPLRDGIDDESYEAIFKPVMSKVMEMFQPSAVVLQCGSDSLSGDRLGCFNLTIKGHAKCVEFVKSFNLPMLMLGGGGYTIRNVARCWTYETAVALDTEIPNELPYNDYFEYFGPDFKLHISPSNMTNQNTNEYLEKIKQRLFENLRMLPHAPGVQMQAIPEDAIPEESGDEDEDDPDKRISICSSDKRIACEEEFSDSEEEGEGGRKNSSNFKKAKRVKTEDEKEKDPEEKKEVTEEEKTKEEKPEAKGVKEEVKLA
The MM.1S was obtained from ATCC (Manassas, VA, USA). MM.1S cells were cultivated in RPMI 1640 medium supplemented with 10% FBS, 100 IU/mL penicillin, 0.1 mg/mL streptomycin, and 1 mM sodium pyruvate at 37°C in a 5% CO2 atmosphere.
The MM.1S cells (3 × 10^6 cells/mL) were seeded into cell culture flasks and, after 72 h, treated with the indicated concentration of compound or DMSO for the given time. Cell lysis was performed with Cell Extraction Buffer and the addition of Halt Protease Inhibitor Cocktail and phenylmethanesulfonyl fluoride. Protein content was determined by Pierce BCA Protein Assay Kit. Samples were denatured by Laemmli 2× Concentrate, and Precision Plus Protein Unstained Standard was used as a molecular weight marker in all cases. SDS‐PAGE was performed with 10% Mini‐PROTEAN TGX Stain‐Free Gel (Catalog# 458035, Bio‐Rad, Hercules, CA, USA) at 200 V for 50 min (Catalog# 458035, Bio‐Rad). Afterwards, proteins were transferred with the Trans‐Blot Turbo Transfer System to Immobilon‐FL PVDF membranes at 1.0 A for 30 min and incubated with 5% milk‐powder solution for 1 h at room temperature under slight agitation. […] The ChemiDoc XRS+ System was used for detection, and Image Lab Software 6.1 (Bio‐Rad, Hercules, CA, USA) for quantification.
A general note: A western blot detects proteins with antibodies after separation by electrophoresis.

The target of test [2] is T1, HDAC1. As to the kind of experiment: HDAC enzyme inhibition assay (ZMAL substrate), HDAC1. The note with it: n = 2, mean ± SD. The format is biochemical. More on the design: purchased BPS Bioscience 50051. On the procedure: (§1) The total assay volume of 50 μL (HDAC2/3/6 max. 1% DMSO; HDAC1 max. 5% DMSO) was incubated at 37°C for 90 min. Subsequently, 50 μL of trypsin (0.4 mg/mL) in trypsin buffer (50 mM Tris−HCl, pH 8.0, 100 mM NaCl) was added, followed by an additional 30 min of incubation at 37°C. Fluorescence (excitation λ = 355 nm, emission λ = 460 nm) was measured using a FLUOstar OPTIMA microplate reader. The IC50 was determined by plotting dose–response curves and performing nonlinear regression using GraphPad Prism.
(§2) The total assay volume of 50 μL (HDAC2/3/6 max. 1% DMSO; HDAC1 max. 5% DMSO) was incubated at 37°C for 90 min. Subsequently, 50 μL of trypsin (0.4 mg/mL) in trypsin buffer (50 mM Tris−HCl, pH 8.0, 100 mM NaCl) was added, followed by additional 30 min of incubation at 37°C. Fluorescence (excitation λ = 355 nm, emission λ = 460 nm) was measured using a FLUOstar OPTIMA microplate reader. The IC50 was determined by plotting dose response curves and performing nonlinear regression using GraphPad Prism.^[3-6]

The target of test [3] is T2, Human recombinant HDAC3/NcoR2 (Homo sapiens, UniProt O15379).
T2 construct: purchased BPS Bioscience 50003
T2 sequence (O15379 whole entry): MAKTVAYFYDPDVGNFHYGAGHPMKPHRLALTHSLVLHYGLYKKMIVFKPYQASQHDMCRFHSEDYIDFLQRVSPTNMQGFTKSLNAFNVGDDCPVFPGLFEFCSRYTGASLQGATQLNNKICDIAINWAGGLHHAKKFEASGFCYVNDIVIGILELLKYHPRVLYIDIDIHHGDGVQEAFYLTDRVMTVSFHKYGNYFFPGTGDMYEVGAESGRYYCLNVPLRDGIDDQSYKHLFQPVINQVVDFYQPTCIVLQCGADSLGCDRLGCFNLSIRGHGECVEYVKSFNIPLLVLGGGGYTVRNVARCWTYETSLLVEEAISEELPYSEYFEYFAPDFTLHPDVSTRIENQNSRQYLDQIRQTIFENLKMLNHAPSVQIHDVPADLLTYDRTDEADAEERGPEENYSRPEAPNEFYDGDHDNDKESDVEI
T2 sequence (Q9Y618 395-489 partner limits assumed): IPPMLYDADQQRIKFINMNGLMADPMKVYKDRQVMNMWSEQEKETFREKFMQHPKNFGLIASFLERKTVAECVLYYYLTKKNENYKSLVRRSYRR
As to the kind of experiment: HDAC enzyme inhibition assay (ZMAL substrate), HDAC3. The class given is biochemical. The note with it: n = 2, mean ± SD. The method, then: as §1, §2

Another test deals with HDAC2 (Homo sapiens, UniProt Q92769). Description: HDAC enzyme inhibition assay (ZMAL substrate), HDAC2. More on the design: purchased BPS Bioscience 50052. The format is biochemical. The note with it: n = 2, mean ± SD. The method, then:
as §1, §2

The next test concerns MM.1S cells. Description: CellTiter-Glo cell viability assay. The class given is cell-based. The note with it: Homo sapiens, MM1.S, 72 h, read-out: IC50 cell viability. On the procedure:
The MM.1S was obtained from ATCC (Manassas, VA, USA).
For this purpose, the dilution series was prepared at 200× concentration in DMSO and then further diluted to 10× concentration in medium. The final DMSO concentration was 0.5%. The toxicity of compounds was assessed after 72 h using the CellTiter‐Glo 2.0 cell viability assay. Luminescence was then measured, and the IC50 was determined by plotting dose–response curves and performing nonlinear regression using GraphPad Prism.
For this purpose, the dilution series were prepared at 200× concentration in DMSO and then further diluted to 10× concentration in medium. The final DMSO concentration was 0.5%. The toxicity of compounds was assessed after 72 h using the CellTiter-Glo 2.0 cell viability assay. Luminescence was then measured, and the IC50 was determined by plotting dose-response curves and performing nonlinear regression using GraphPad Prism.^[1]
For orientation: ATP-based viability assays read luminescence as a measure of living cells.

From paper PMC12238837, “DCAF16‐Based Covalent Molecular Glues for Targeted Protein Degradation of Histone Deacetylases” (Archiv Der Pharmazie, 2025) come the findings set out here.

The structures appear in SMILES notation.

Sequence of HDAC2 (Q92769 whole entry): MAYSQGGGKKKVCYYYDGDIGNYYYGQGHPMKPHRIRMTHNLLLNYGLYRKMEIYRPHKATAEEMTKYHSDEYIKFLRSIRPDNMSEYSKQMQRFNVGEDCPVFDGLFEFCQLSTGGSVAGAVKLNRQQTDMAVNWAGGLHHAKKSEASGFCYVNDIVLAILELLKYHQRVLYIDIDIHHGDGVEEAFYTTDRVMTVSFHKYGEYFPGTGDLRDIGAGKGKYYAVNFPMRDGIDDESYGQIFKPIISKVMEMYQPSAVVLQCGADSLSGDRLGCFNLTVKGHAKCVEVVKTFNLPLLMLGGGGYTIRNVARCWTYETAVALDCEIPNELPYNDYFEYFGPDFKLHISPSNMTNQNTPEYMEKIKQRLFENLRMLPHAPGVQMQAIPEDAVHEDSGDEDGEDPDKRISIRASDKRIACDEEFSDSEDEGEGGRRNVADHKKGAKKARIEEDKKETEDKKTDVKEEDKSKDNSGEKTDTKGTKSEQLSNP

As for `CCS(=O)(=O)N1CCN(C(=O)Cc2ccc(NC(=O)CCCCCCC(=O)NO)cc2)CC1` [10a‐nc, N ^1‐(4‐{2‐[4‐(Ethylsulfonyl)piperazin‐1‐yl]‐2‐Oxoethyl}phenyl)‐N ^8‐Hydroxyoctanediamide], the “HDAC1 protein levels” value at HDAC1 [1] is “did not affect HDAC1 levels”. The figures for the IC50 (at HDAC1 [2]; in test [3]; at HDAC2) were 229 ± 4 nM, 323 ± 22 nM and 423 ± 63 nM, respectively.
As for `O=C(CCCCCCC(=O)Nc1ccccc1)NO` [Vorinostat], the IC50 (in general, the concentration at which inhibition is half-maximal) in the test with MM.1S cells worked out at 790 ± 130 nM.
